Assay results taken from PubChem BioAssay AID1259407 (Chemical Carcinogenesis Research Information System (CCRIS), 2018).
Activity calls are given as the source filed them. The rule behind the calls is not given here.

Tested on: CCRIS mutagenicity, Ames/micronucleus/aberration tests
Assay: CCRIS mutagenicity studies
[1] = Test System: AMES SALMONELLA TYPHIMURIUM, Strain/Indicator: TA98, Metabolic Activation: NONE, Method: PREINCUBATION
[2] = Test System: AMES SALMONELLA TYPHIMURIUM, Strain/Indicator: TA100, Metabolic Activation: NONE, Method: PREINCUBATION
[3] = Test System: AMES SALMONELLA TYPHIMURIUM, Strain/Indicator: TA1535, Metabolic Activation: NONE, Method: PREINCUBATION
[4] = Test System: AMES SALMONELLA TYPHIMURIUM, Strain/Indicator: TA1537, Metabolic Activation: NONE, Method: PREINCUBATION

Measured: mutagenic call

CCCSP(=O)(OCC)SCCC
inactive: End Point: In vitro chromosomal aberrations, Test System: Chinese hamster ovary (CHO) cells, Metabolic Activation: None inactive; negative | End Point: UDS/DNA repair, Test System: Fischer 344 rat (male) hepatocytes, Metabolic Activation: None, Method: Autoradiography inactive; negative | End Point: UDS, Test System: Fischer 344 rat hepatocytes, Metabolic Activation: None, Method: Autoradiography inactive; negative | Test System: Ames Salmonella typhimurium, Strain/Indicator: TA98, Metabolic Activation: None, Method: Plate incorporation inactive; negative | Test System: Ames Salmonella typhimurium, Strain/Indicator: TA98, Metabolic Activation: Rat, Liver, S-9, Method: Plate incorporation inactive; negative | Test System: Ames Salmonella typhimurium, Strain/Indicator: TA100, Metabolic Activation: None, Method: Plate incorporation inactive; negative | Test System: Ames Salmonella typhimurium, Strain/Indicator: TA100, Metabolic Activation: Rat, Liver, S-9, Method: Plate incorporation inactive; negative | Test System: Ames Salmonella typhimurium, Strain/Indicator: TA1535, Metabolic Activation: None, Method: Plate incorporation inactive; negative | Test System: Ames Salmonella typhimurium, Strain/Indicator: TA1535, Metabolic Activation: Rat, Liver, S-9, Method: Plate incorporation inactive; negative | Test System: Ames Salmonella typhimurium, Strain/Indicator: TA1537, Metabolic Activation: None, Method: Plate incorporation inactive; negative | Test System: Ames Salmonella typhimurium, Strain/Indicator: TA1537, Metabolic Activation: Rat, Liver, S-9, Method: Plate incorporation inactive; negative | Test System: Ames Salmonella typhimurium, Strain/Indicator: TA1538, Metabolic Activation: None, Method: Plate incorporation inactive; negative | Test System: Ames Salmonella typhimurium, Strain/Indicator: TA1538, Metabolic Activation: Rat, Liver, S-9, Method: Plate incorporation inactive; negative | Test System: Chinese hamster ovary, Strain/Indicator: CHO-K1-BH4 (HGPRT), Metabolic Activation: None, Method: Suspension/plate inactive; negative | Test System: Chinese hamster ovary, Strain/Indicator: CHO-K1-BH4 (HGPRT), Metabolic Activation: Rat, Liver, S-9, Method: Suspension/plate inactive; negative | Test System: Mouse lymphoma cells, Strain/Indicator: L5178Y cells, Metabolic Activation: None, Method: Plate inactive; negative | Test System: Mouse lymphoma cells, Strain/Indicator: L5178Y cells, Metabolic Activation: S-9, Method: Plate inactive; negative

CCCCCCCC/C=C\CCCCCCCC(=O)O
inactive: Test System: AMES SALMONELLA TYPHIMURIUM, Strain/Indicator: TA97, Metabolic Activation: HAMSTER, LIVER, S-9, AROCLOR 1254 (10 OR 30%), Method: PREINCUBATION inactive; negative | Test System: AMES SALMONELLA TYPHIMURIUM, Strain/Indicator: TA97, Metabolic Activation: NONE, Method: PREINCUBATION inactive; negative | Test System: AMES SALMONELLA TYPHIMURIUM, Strain/Indicator: TA97, Metabolic Activation: RAT, LIVER, S-9, AROCLOR 1254 (10 OR 30%), Method: PREINCUBATION inactive; negative | Test System: AMES SALMONELLA TYPHIMURIUM, Strain/Indicator: TA98, Metabolic Activation: HAMSTER, LIVER, S-9, AROCLOR 1254 (10 OR 30%), Method: PREINCUBATION inactive; negative | [1] inactive; negative | Test System: AMES SALMONELLA TYPHIMURIUM, Strain/Indicator: TA98, Metabolic Activation: NONE, Method: STANDARD PLATE inactive; negative | Test System: AMES SALMONELLA TYPHIMURIUM, Strain/Indicator: TA98, Metabolic Activation: RAT, LIVER, S-9, AROCLOR 1254 (10 OR 30%), Method: PREINCUBATION inactive; negative | Test System: AMES SALMONELLA TYPHIMURIUM, Strain/Indicator: TA98, Metabolic Activation: RAT, LIVER, S-9, KC 500, Method: PREINCUBATION inactive; negative | Test System: AMES SALMONELLA TYPHIMURIUM, Strain/Indicator: TA98, Metabolic Activation: S-9, PHENOBARBITAL, Method: STANDARD PLATE inactive; negative | Test System: AMES SALMONELLA TYPHIMURIUM, Strain/Indicator: TA100, Metabolic Activation: HAMSTER, LIVER, S-9, AROCLOR 1254 (10 OR 30%), Method: PREINCUBATION inactive; negative | [2] inactive; negative | Test System: AMES SALMONELLA TYPHIMURIUM, Strain/Indicator: TA100, Metabolic Activation: NONE, Method: STANDARD PLATE inactive; negative | Test System: AMES SALMONELLA TYPHIMURIUM, Strain/Indicator: TA100, Metabolic Activation: RAT, LIVER, S-9, AROCLOR 1254 (10 OR 30%), Method: PREINCUBATION inactive; negative | Test System: AMES SALMONELLA TYPHIMURIUM, Strain/Indicator: TA100, Metabolic Activation: RAT, LIVER, S-9, KC 500, Method: PREINCUBATION inactive; negative | Test System: AMES SALMONELLA TYPHIMURIUM, Strain/Indicator: TA100, Metabolic Activation: S-9, PHENOBARBITAL, Method: STANDARD PLATE inactive; negative | Test System: AMES SALMONELLA TYPHIMURIUM, Strain/Indicator: TA1535, Metabolic Activation: HAMSTER, LIVER, S-9, AROCLOR 1254 (10 OR 30%), Method: PREINCUBATION inactive; negative | [3] inactive; negative | Test System: AMES SALMONELLA TYPHIMURIUM, Strain/Indicator: TA1535, Metabolic Activation: NONE, Method: STANDARD PLATE inactive; negative | Test System: AMES SALMONELLA TYPHIMURIUM, Strain/Indicator: TA1535, Metabolic Activation: RAT, LIVER, S-9, AROCLOR 1254 (10 OR 30%), Method: PREINCUBATION inactive; negative | Test System: AMES SALMONELLA TYPHIMURIUM, Strain/Indicator: TA1535, Metabolic Activation: RAT, LIVER, S-9, KC 500, Method: PREINCUBATION inactive; negative | Test System: AMES SALMONELLA TYPHIMURIUM, Strain/Indicator: TA1535, Metabolic Activation: S-9, PHENOBARBITAL, Method: STANDARD PLATE inactive; negative | [4] inactive; negative | Test System: AMES SALMONELLA TYPHIMURIUM, Strain/Indicator: TA1537, Metabolic Activation: NONE, Method: STANDARD PLATE inactive; negative | Test System: AMES SALMONELLA TYPHIMURIUM, Strain/Indicator: TA1537, Metabolic Activation: RAT, LIVER, S-9, KC 500, Method: PREINCUBATION inactive; negative | Test System: AMES SALMONELLA TYPHIMURIUM, Strain/Indicator: TA1537, Metabolic Activation: S-9, PHENOBARBITAL, Method: STANDARD PLATE inactive; negative | Test System: AMES SALMONELLA TYPHIMURIUM, Strain/Indicator: TA1538, Metabolic Activation: NONE, Method: PREINCUBATION inactive; negative | Test System: AMES SALMONELLA TYPHIMURIUM, Strain/Indicator: TA1538, Metabolic Activation: RAT, LIVER, S-9, KC 500, Method: PREINCUBATION inactive; negative | Test System: E. COLI, Strain/Indicator: WP2 UVRA, Metabolic Activation: NONE, Method: PREINCUBATION inactive; negative | Test System: E. COLI, Strain/Indicator: WP2 UVRA, Metabolic Activation: NONE, Method: STANDARD PLATE inactive; negative | Test System: E. COLI, Strain/Indicator: WP2 UVRA, Metabolic Activation: RAT, LIVER, S-9, KC 500, Method: PREINCUBATION inactive; negative | Test System: E. COLI, Strain/Indicator: WP2 UVRA, Metabolic Activation: S-9, PHENOBARBITAL, Method: STANDARD PLATE inactive; negative

CC(C)=CCC/C(C)=C/C=C/C(C)=C/C=C/C(C)=C/C=C/C=C(C)/C=C/C=C(C)/C=C/C=C(\C)CCC=C(C)C
inactive: [1] inactive; negative | Test System: AMES SALMONELLA TYPHIMURIUM, Strain/Indicator: TA98, Metabolic Activation: RAT LIVER S-9, Method: PREINCUBATION inactive; negative | [2] inactive; negative | Test System: AMES SALMONELLA TYPHIMURIUM, Strain/Indicator: TA100, Metabolic Activation: RAT LIVER S-9, Method: PREINCUBATION inactive; negative | [3] inactive; negative | Test System: AMES SALMONELLA TYPHIMURIUM, Strain/Indicator: TA1535, Metabolic Activation: RAT LIVER S-9, Method: PREINCUBATION inactive; negative | [4] inactive; negative | Test System: AMES SALMONELLA TYPHIMURIUM, Strain/Indicator: TA1537, Metabolic Activation: RAT LIVER S-9, Method: PREINCUBATION inactive; negative | Test System: ESCHERICHIA COLI, Strain/Indicator: WP2 UVR A, Metabolic Activation: NONE, Method: PREINCUBATION inactive; negative | Test System: ESCHERICHIA COLI, Strain/Indicator: WP2 UVR A, Metabolic Activation: RAT LIVER S-9, Method: PREINCUBATION inactive; negative
